Measurements: PubChem BioAssay AID248 (DTP/NCI, 2004)
“And” between values parts separate entries of the source, which are not always exact repeats. Equal values may be shown once. Inconclusive results and toxic doses are left out. No stated cut-off is given here; in the data, active means T/C of 150% or more; inactive means T/C below 125%.

System: L1210 leukemia ip in BDF1 mice, survival T/C
Assay: NCI In Vivo Anticancer Drug Screen. Data for tumor model L1210 Leukemia (intraperitoneal) in B6D2F1 (BDF1) mice
Details: endpoint: mean survival time, higher = longer survival
Summary of the method: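 In this screen, tumor-bearing mice given compound are compared to those given vehicle, and their survival values are reported as a treated-to-control quotient.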

[1] = dose: 100.0 mg/kg/injection, schedule: Q01DX001 (ip), vehicle: Klucel (hydroxypropylcellulose) (HPC)
[2] = dose: 100.0 mg/kg/injection, schedule: Q01DX009 (ip), vehicle: Klucel (hydroxypropylcellulose) (HPC)
[3] = dose: 200.0 mg/kg/injection, schedule: Q01DX001 (ip), vehicle: Klucel (hydroxypropylcellulose) (HPC)
[4] = dose: 200.0 mg/kg/injection, schedule: Q01DX009 (ip), vehicle: Klucel (hydroxypropylcellulose) (HPC)
[5] = dose: 400.0 mg/kg/injection, schedule: Q01DX001 (ip), vehicle: Klucel (hydroxypropylcellulose) (HPC)
[6] = dose: 100.0 mg/kg/injection, schedule: Q04DX002 (ip), vehicle: Klucel (hydroxypropylcellulose) (HPC)
[7] = dose: 100.0 mg/kg/injection, schedule: Q04DX003 (ip), vehicle: Klucel (hydroxypropylcellulose) (HPC)
[8] = dose: 200.0 mg/kg/injection, schedule: Q04DX003 (ip), vehicle: Klucel (hydroxypropylcellulose) (HPC)
[9] = dose: 400.0 mg/kg/injection, schedule: Q04DX003 (ip), vehicle: Klucel (hydroxypropylcellulose) (HPC)
[10] = dose: 100.0 mg/kg/injection, schedule: Q01DX009 (ip), vehicle: saline
[11] = dose: 100.0 mg/kg/injection, schedule: Q04DX003 (ip), vehicle: saline
[12] = dose: 200.0 mg/kg/injection, schedule: Q01DX009 (ip), vehicle: saline
[13] = dose: 200.0 mg/kg/injection, schedule: Q04DX003 (ip), vehicle: saline
[14] = dose: 400.0 mg/kg/injection, schedule: Q01DX009 (ip), vehicle: saline
[15] = dose: 400.0 mg/kg/injection, schedule: Q04DX003 (ip), vehicle: saline
[16] = dose: 100.0 mg/kg/injection, schedule: Q01DX009 (ip), vehicle: saline with Tween-80
[17] = dose: 100.0 mg/kg/injection, schedule: Q01DX001 (ip), vehicle: saline
[18] = dose: 200.0 mg/kg/injection, schedule: Q01DX001 (ip), vehicle: saline
[19] = dose: 400.0 mg/kg/injection, schedule: Q01DX001 (ip), vehicle: saline
[20] = dose: 100.0 mg/kg/injection, schedule: Q04DX003 (ip), vehicle: saline with Tween-80
[21] = dose: 200.0 mg/kg/injection, schedule: Q04DX003 (ip), vehicle: saline with Tween-80
[22] = dose: 400.0 mg/kg/injection, schedule: Q01DX009 (ip), vehicle: Klucel (hydroxypropylcellulose) (HPC)
[23] = dose: 50.0 mg/kg/injection, schedule: Q01DX009 (ip), vehicle: saline

Measured: T/C

CC1=CC(=O)C=CC1(C)C
inactive: [1] 100 % of control | [2] 94 % of control | [3] 100 % of control | [4] 94 % of control | [5] 108 % of control

CCCCCCP(=O)(CCCC)CCCC
inactive: dose: 25.0 mg/kg/injection, schedule: Q04DX002 (ip), vehicle: Klucel (hydroxypropylcellulose) (HPC) 94 % of control | dose: 50.0 mg/kg/injection, schedule: Q04DX002 (ip), vehicle: Klucel (hydroxypropylcellulose) (HPC) 109 % of control | [6] 103 % of control and 109 % of control

[N-]=[N+]=C1Cc2ccccc2C1=O
inactive: [2] 103 % of control | [7] 102 % of control | [4] 100 % of control | [8] 105 % of control | [9] 92 % of control

Cc1ccc(C(=O)N/N=C/c2c(O)ccc3ccccc23)cc1
inactive: [6] 89 % of control | dose: 200.0 mg/kg/injection, schedule: Q04DX002 (ip), vehicle: Klucel (hydroxypropylcellulose) (HPC) 89 % of control | dose: 400.0 mg/kg/injection, schedule: Q04DX002 (ip), vehicle: Klucel (hydroxypropylcellulose) (HPC) 96 % of control

Cc1cc[n+](CCC(N)=O)cc1
inactive: [10] 95 % of control | [11] 93 % of control | [12] 93 % of control | [13] 98 % of control | [14] 93 % of control | [15] 102 % of control

COC(=O)C1(C)CCCC2(C)C1CCC13OCC(CC21)C(=C(C)C)C3OC(C)=O (centres undefined)
inactive: [16] 93 % of control | dose: 200.0 mg/kg/injection, schedule: Q01DX009 (ip), vehicle: saline with Tween-80 88 % of control | dose: 400.0 mg/kg/injection, schedule: Q01DX009 (ip), vehicle: saline with Tween-80 90 % of control

COC(=O)C(C)NCc1ccccc1 (centres undefined)
inactive: [10] 95 % of control | [11] 107 % of control | [12] 100 % of control | [13] 107 % of control | [14] 100 % of control | [15] 102 % of control

CCC(C)OC(=O)C(C)OC(=O)OCCOCCOC(=O)OC(C)C(=O)OC(C)CC (centres undefined)
inactive: [17] 96 % of control | [18] 100 % of control | [19] 96 % of control

CCOC(=O)C(CCSC(C)=O)SC(C)=O (centres undefined)
inactive: dose: 25.0 mg/kg/injection, schedule: Q01DX009 (ip), vehicle: saline with Tween-80 94 % of control | dose: 50.0 mg/kg/injection, schedule: Q01DX009 (ip), vehicle: saline with Tween-80 96 % of control | [16] 89 % of control | [20] 95 % of control | [21] 92 % of control

COc1ccc(OC(=O)Nc2cc(C)ccc2C)cc1
inactive: [2] 91 % of control | [7] 94 % of control | [4] 90 % of control | [8] 97 % of control | [9] 108 % of control

Clc1ccc2c(c1)C1=NCCCN1c1cc(Cl)ccc1-2
inactive: dose: 2.5 mg/kg/injection, schedule: Q01DX009 (ip), vehicle: saline 105 % of control | dose: 2.5 mg/kg/injection, schedule: Q04DX002 (ip), vehicle: saline 100 % of control | dose: 2.5 mg/kg/injection, schedule: Q04DX003 (ip), vehicle: Klucel (hydroxypropylcellulose) (HPC) 102 % of control | dose: 5.0 mg/kg/injection, schedule: Q01DX009 (ip), vehicle: saline 97 % of control | dose: 5.0 mg/kg/injection, schedule: Q04DX002 (ip), vehicle: saline 96 % of control | dose: 5.0 mg/kg/injection, schedule: Q04DX003 (ip), vehicle: Klucel (hydroxypropylcellulose) (HPC) 104 % of control | dose: 10.0 mg/kg/injection, schedule: Q01DX009 (ip), vehicle: saline 97 % of control | dose: 10.0 mg/kg/injection, schedule: Q04DX002 (ip), vehicle: saline 111 % of control | dose: 10.0 mg/kg/injection, schedule: Q04DX003 (ip), vehicle: Klucel (hydroxypropylcellulose) (HPC) 104 % of control | dose: 20.0 mg/kg/injection, schedule: Q04DX003 (ip), vehicle: Klucel (hydroxypropylcellulose) (HPC) 91 % of control

CSc1ccnc2n[nH]nc12
inactive: [1] 102 % of control | [7] 94 % of control | [3] 104 % of control | [8] 101 % of control

CC1CCCCN1C(=O)Nc1ccc(Cl)cc1[N+](=O)[O-] (centres undefined)
inactive: [2] 100 % of control | [4] 91 % of control | [22] 92 % of control

Cc1ccc2c(c1)C=CC(C#N)N2C(=O)OCc1ccccc1 (centres undefined)
inactive: [20] 95 % of control | [21] 97 % of control | dose: 400.0 mg/kg/injection, schedule: Q04DX003 (ip), vehicle: saline with Tween-80 94 % of control

c1ccc2nc3c(cc2c1)NCC3
inactive: [1] 95 % of control | [3] 97 % of control | [5] 109 % of control

COC1OC(CO)C(O)C(O)C1O (centres undefined)
inactive: dose: 44.0 mg/kg/injection, schedule: Q01DX001 (ip), vehicle: saline 102 % of control and 105 % of control | dose: 50.0 mg/kg/injection, schedule: Q01DX001 (ip), vehicle: saline 102 % of control | [23] 90 % of control | dose: 66.0 mg/kg/injection, schedule: Q01DX001 (ip), vehicle: saline 96 % of control and 100 % of control | [17] 100 % of control and 107 % of control | [10] 109 % of control | dose: 150.0 mg/kg/injection, schedule: Q01DX001 (ip), vehicle: saline 105 % of control and 107 % of control | [18] 100 % of control | [12] 93 % of control | [19] 111 % of control

CCOC(=O)CC(CC[N+](=O)[O-])C(=O)OCC (centres undefined)
inactive: dose: 50.0 mg/kg/injection, schedule: Q04DX002 (ip), vehicle: saline with Tween-80 108 % of control | [17] 109 % of control | dose: 100.0 mg/kg/injection, schedule: Q04DX002 (ip), vehicle: saline with Tween-80 89 % of control | [18] 110 % of control | dose: 200.0 mg/kg/injection, schedule: Q04DX002 (ip), vehicle: saline with Tween-80 96 % of control | [19] 97 % of control

CN1C(=O)c2ccccc2C1(N)c1ccccc1 (centres undefined)
inactive: [2] 90 % of control | [4] 105 % of control | [22] 100 % of control

C#CC(O)(/C=C\Cl)CC (centres undefined)
inactive: dose: 12.5 mg/kg/injection, schedule: Q01DX009 (ip), vehicle: saline 102 % of control | dose: 25.0 mg/kg/injection, schedule: Q01DX009 (ip), vehicle: saline 93 % of control | dose: 25.0 mg/kg/injection, schedule: Q04DX003 (ip), vehicle: saline 101 % of control | [23] 94 % of control | dose: 50.0 mg/kg/injection, schedule: Q04DX003 (ip), vehicle: saline 95 % of control | [10] 86 % of control | [11] 97 % of control | [13] 106 % of control
